These are literature values, as cited in patent publication US20240350654A1, “NANOCARRIERS FOR TARGETED DELIVERY OF THERAPEUTICS” (Northwestern University, priority 2023, published 2024).

The conditions of the series: humans, approximation.

Regarding `CO[C@@H]1[C@H](N(C)C(=O)c2ccccc2)C[C@H]2O[C@]1(C)n1c3ccccc3c3c4c(c5c6ccccc6n2c5c31)C(=O)NC4` [midostaurin], the “total peak blood concentration of midostaurin and its active metabolites” value was 2.16 µg/mL.
